Measured values from EP1143992B1, “THERAPEUTIC COMPOSITIONS CONTAINING GLUTATHIONE ANALOGS” (TELIK, INC., priority 1999, dated 2000).
Read-outs that look alike come from different tables or passages of the source.

Columns and labels:
[1] = Particle size of lipid microspheres; assay type: physicochemical; details: lipid microspheres after 1.2µm filter, 300 µg/mL
Description: Then 2.21 gm of glycerol and enough distilled water to bring the volume to 100 mL(approximately 90 mL) were added, followed by a rough emulsification by means of a homogenizer. The product is then further emulsified by means of a manton gaulin type homogenizer. […]

[2] = Description: The lyophilization cycle involved rapid freezing of the sample (2.5 ml fill of 10 ml vial) to a sample temperature of -50°C, followed by lyophilization at a tray temperature of -35°C for 42 hours to remove primary water, and for 2 hours at 20°C to remove secondary water.
The MLVs may be passed (5-10x) through stacked polycarbonate filters (pore size of 80 nm) using an EXTRUDER (Lipex Biomembranes, Vancouver, Canada).

[3] = tested on: fluorouracil-induced neutropenia; details: rats; fluorouracil 125mg/kg intraperitoneally; liposomal formulation of Example 4, 35mg/kg, 8 daily intravenous injections; Figure 1
Description: Male CD rats (250-300g) were injected intraperitoneally with either the antineoplastic drug, fluorouracil (125mg/kg) or an equivalent volume of its vehicle (saline). […] Rats originally injected with saline rather than fluorouracil received saline intravenously (n = 7). Blood samples were taken for measurement of neutrophil levels prior to the fluorouracil and every 1 to 2 days thereafter for 14 days.

[4] = tested on: circulating neutrophil levels; details: normal rats; liposomal formulation of Example 4, 35mg/kg, i.v., 5 daily injections; Figure 2
Excerpt: Blood samples were taken for measurement of neutrophil levels daily.

[5] = Drug/Lipid 0.25, EPC/EPG (1/1), Sucrose 300 mM

particles of final emulsion [1]: approximately 220 nM | Drug (mg/ml) ([2]; ethanol dilution, Drug/Lipid 0.25 wt/wt, EPC, comparative example): 16.2. mg/ml | precipitated form of the drug ([2]; removed by extrusion through 80 nm filters): < 2% | Viscosity ([5]; Lyophilization Time 32 hr): Negligible | Viscosity ([5]; Lyophilization Time 40 hr): Negligible | Viscosity ([5]; Lyophilization Time 44 hr): Negligible | Viscosity ([5]; Lyophilization Time 54 hr): Viscous | Viscosity ([5]; Lyophilization Time 59 hr): Very Viscous
Structure (SMILES): CCOC(=O)C(N)CCC(=O)NC(CSCc1ccccc1)C(=O)N[C@@H](C(=O)OCC)c1ccccc1.Cl (stereo partly shown) [Compound 9, γ-Glutamyl-S(benzyl)cysteinyl-R-phenyl glycine diethyl ester hydrochloride]
recovery from chemotherapy-induced neutropenia [3]: accelerated recovery | circulating neutrophil levels [4]: increased
